Publication PMC5391968, “Comparison of cell-based assays for the identification and evaluation of competitive CXCR4 inhibitors” (PLoS ONE, 2017)
Like-named read-outs stand apart in the source and are kept apart here. Where a SMILES comes first, the peptide text is derived from it. Bridges are numbered along the chain shown (N, C = ends). Where no end group is shown, it is not given here. [ ]: non-standard residue; d: D form. 2Nal = N[C@@H](Cc1ccc2ccccc2c1)C(=O)O; Cit = NC(=O)NCCC[C@H](N)C(=O)O

Legend:
CXCR4 [1] = biological target: T1, CXCR4 (Homo sapiens, UniProt P61073); assay: CXCL12^AF647 binding assay on Jurkat cells; conditions: read-out: IC50 CXCL12-CXCR4 binding interaction
T1 sequence (P61073 whole entry): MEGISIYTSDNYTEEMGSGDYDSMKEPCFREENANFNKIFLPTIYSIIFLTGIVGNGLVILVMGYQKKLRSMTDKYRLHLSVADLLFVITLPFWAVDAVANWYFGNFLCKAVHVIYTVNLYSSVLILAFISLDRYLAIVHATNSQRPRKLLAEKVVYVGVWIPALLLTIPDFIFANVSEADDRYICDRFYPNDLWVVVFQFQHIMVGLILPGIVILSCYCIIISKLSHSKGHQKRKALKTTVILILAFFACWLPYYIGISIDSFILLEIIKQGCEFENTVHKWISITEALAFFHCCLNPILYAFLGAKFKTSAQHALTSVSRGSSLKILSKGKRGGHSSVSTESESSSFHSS
Protocol: In brief, Jurkat cells were washed twice in assay buffer [Hank’s Balanced Salt Solution (HBSS; Thermo Fisher Scientific), 20 mM HEPES buffer (Thermo Fisher Scientific), 0.2% bovine serum albumin (Sigma-Aldrich), pH 7.4]. […] Afterwards, cells were washed twice in assay buffer and subsequently fixed in 1% paraformaldehyde in Dulbecco’s phosphate buffered saline (DPBS). Samples were analyzed with the FACSArray flow cytometer (Becton Dickinson, NJ, USA). Data were further analyzed with the FlowJo Software (Ashland, Oregon, USA).

CXCR4 [2] = biological target: T1, CXCR4; assay: Calcium mobilization assay (FLIPR Tetra) in U87.CD4.CXCR4 cells; assay type: cell-based; conditions: for agonist activity on intracellular calcium flux: in absence of CXCL12
Protocol: U87.CD4.CXCR4 cells were seeded at 2x10^4 cells per well in gelatin-coated black-walled 96-well plates [0.1% gelatin in DPBS, incubated at RT for two hours and washed once with DPBS] and incubated at 37°C and 5% CO2 overnight. […] Fluo-2 AM loaded cells were washed with assay buffer before being incubated in the FLIPR Tetra system at 37°C for five minutes. At the start of the kinetic measurement, compounds were added to the cell plate by the internal robotic system followed by an incubation period of 10 minutes during which changes in the intracellular calcium level were continuously measured by the FLIPR Tetra. […] Each condition was measured in triplicate and repeated several times as further indicated (see Results).

HIV-1 NL4-3 (X4) [3] = assay: microbe, parasite or virus in culture; assay type: cell-based
Protocol: PHA-stimulated PBMCs at 5x10^5 cells per sample, pre-incubated with test compounds dissolved in cell culture medium containing IL-2 (2 ng/ml; […] After three days, fresh culture medium with IL-2 was added. Ten days post infection cell supernatant was collected for HIV-1 p24 core antigen enzyme-linked immunosorbent assay (ELISA; Perkin Elmer, Boston, MA, USA) according to the manufacturer’s protocol. In the antiviral assays, each condition was tested in duplicate.

in vitro [4] = assay type: cell-based; conditions: human
Protocol: Freshly isolated peripheral blood mononuclear cells (PBMCs) were isolated out of buffy coats from healthy donors (Red Cross, Belgium). They were cultured in RPMI medium with 10% FBS, 2 mM L-glutamine and stimulated with 2 μg/ml phytohemagglutinin (PHA; Sigma-Aldrich) for three days before use in the HIV replication assays (see below).
Jurkat cells (3x10^5 cells per well in culture medium) were incubated with serial dilutions of compound at room temperature (RT) for two hours. Cytotoxicity of the compounds was also evaluated at 37°C over a longer period of time in MT-4 cells (5x10^4 cells per well in culture medium, four day incubation) and PHA-stimulated PBMCs (5x10^5 cells per well in culture medium, ten day incubation) because these cell types were used in anti-HIV activity assays which last up to ten days (see below). Each condition was tested in duplicate. Cytotoxicity was evaluated microscopically and, in addition, cell viability was assessed using the colorimetric CellTiter 96 AQueous One Solution Cell Proliferation Assay (Promega, Fitchburg, WI, USA), which is based on the reduction of the tetrazolium salt MTS [3-(4,5-dimethylthiazol-2-yl)-5-(3-carboxymethoxyphenyl)-2-(4-sulfophenyl)-2H-tetrazolium] to formazan by metabolically active cells. Absorbance at 490 nm was measured with the VersaMax ELISA Microplate Reader (Molecular Devices, Sunnyvale, CA, USA). […]

[5] = system: CXCR4-positive Jurkat cells; assay: cells; assay type: cell-based, human
Protocol: Jurkat cells were washed twice in assay buffer (see above), dispensed into a 96-well plate (5x10^5 cells per well) containing serial dilutions of compounds (in assay buffer) and incubated at RT in the dark for 10 minutes. […] Suspensions of 1.87x10^4 cells were transferred to the chemotaxis insert plate. […] After removal of the insert plate, migrated cells were centrifuged and resuspended in DPBS containing flow cytometry cell counting beads ([…] Fluorescent Particles; Gentaur, London, UK). Both migrated cells and particles were counted by flow cytometry (FACSCanto II; Becton Dickinson). Each compound concentration was tested in triplicate. Data were analyzed using the FlowJo software and the total number of migrated cells was calculated, according to the counted and total number of beads present in the sample.

in vitro [6] = assay type: cell-based; conditions: human; remark: listed apart in the source
Protocol: Jurkat cells (3x10^5 cells per well in culture medium) were incubated with serial dilutions of compound at room temperature (RT) for two hours. Cytotoxicity of the compounds was also evaluated at 37°C over a longer period of time in MT-4 cells (5x10^4 cells per well in culture medium, four day incubation) and PHA-stimulated PBMCs (5x10^5 cells per well in culture medium, ten day incubation) because these cell types were used in anti-HIV activity assays which last up to ten days (see below). Each condition was tested in duplicate. Cytotoxicity was evaluated microscopically and, in addition, cell viability was assessed using the colorimetric CellTiter 96 AQueous One Solution Cell Proliferation Assay (Promega, Fitchburg, WI, USA), which is based on the reduction of the tetrazolium salt MTS [3-(4,5-dimethylthiazol-2-yl)-5-(3-carboxymethoxyphenyl)-2-(4-sulfophenyl)-2H-tetrazolium] to formazan by metabolically active cells. Absorbance at 490 nm was measured with the VersaMax ELISA Microplate Reader (Molecular Devices, Sunnyvale, CA, USA). The cytotoxic concentration 50 (CC50) of each compound was calculated based on the absorbance of negative (i.e. cells without compound) and positive (i.e. only culture medium) control samples.

CXCR4 [7] = biological target: T1, CXCR4; assay: CXCR4 internalization assay in SUP-T1 cells; assay type: cell-based; design: CXCR4 receptors endogenously expressed on SUP-T1 cells; endogenous in cells; host or cells: SUP-T1 (ATCC); conditions: for induction of CXCR4 internalization (agonistic effect): in absence of CXCL12, data not shown
Protocol: T-lymphoblastic SUP-T1 cells were washed twice in DPBS containing 2% FBS. Afterwards, cells were first incubated with the PE-labeled rat anti-human CXCR4 mAb (clone 1D9; 2 μg/ml in DPBS/2% FBS; BD Pharmingen) on ice for 45 minutes. […] SUP-T1 cells were subsequently washed once with ice cold DPBS and twice with ice cold assay buffer (see above) before being treated with test compound on ice for 15 minutes. […] Samples were immediately analyzed with the FACSCalibur flow cytometer (Becton Dickinson) whereby the measured fluorescence corresponds to the amount of […] CXCR4 receptors. Data were further analyzed with the FlowJo software.

HIV-1 NL4-3 (X4) [8] = assay: microbe, parasite or virus in culture; assay type: cell-based; remark: listed apart in the source
Protocol: The anti-HIV replication assays in MT-4 cells and PHA-stimulated PBMCs have been described previously. The HIV-1 T-tropic molecular clone NL4-3 (X4) was obtained from the National Institute of Allergy and Infectious Disease (NIAID) AIDS reagent program (Bethesda, MD, USA). Briefly, 5x10^4 MT-4 cells (in cell culture medium) were treated with different concentrations of compound at 37°C for 30 minutes. Afterwards, a 50% tissue culture infectious dose of the NL4-3 viral stock was added to the cell-compound mixtures. Four days post infection, the cytopathic effect was evaluated microscopically and cell viability was assessed with the MTS method, as described above.
In the antiviral assays, each condition was tested in duplicate.

CXCR7 = biological target: T2, CXCR7 (Homo sapiens, UniProt P25106); assay: CXCL12 binding on CXCR7-transfected U87 cells (U87.CD4.CXCR7); conditions: data not shown
T2 construct: expressed in transfected cells; host or cells: U87.CD4 cells transfected with pTEJ-8 plasmid carrying human CXCR7 cDNA
T2 sequence (P25106 whole entry): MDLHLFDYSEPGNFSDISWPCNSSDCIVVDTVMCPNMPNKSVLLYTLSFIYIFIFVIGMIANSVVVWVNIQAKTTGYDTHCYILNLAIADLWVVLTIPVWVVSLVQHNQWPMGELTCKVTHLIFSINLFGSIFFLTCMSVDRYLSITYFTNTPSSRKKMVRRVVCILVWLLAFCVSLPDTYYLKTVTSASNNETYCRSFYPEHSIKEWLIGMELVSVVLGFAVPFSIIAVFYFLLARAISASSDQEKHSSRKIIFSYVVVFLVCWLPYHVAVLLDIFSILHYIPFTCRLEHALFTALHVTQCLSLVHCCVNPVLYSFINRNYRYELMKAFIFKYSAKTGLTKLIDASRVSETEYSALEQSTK

Q: Which IC50 (CXCR4 [1]) does the source give for `CC(C)=CCC[C@]1(C)C=Cc2c(O)c3c(c(CC=C(C)C)c2O1)O[C@]12C(=C[C@@H]4C[C@H]1C(C)(C)O[C@@]2(C/C=C(/C)C(=O)O)C4=O)C3=O` [gambogic acid] here?
A: Its IC50 is 7060 nM.

Q: And the IC50 (CXCR4 [2]; read-out: IC50 Calcium signaling (CXCL12-induced))?
A: The IC50 was 4370 nM.

Q: And the IC50 (HIV-1 NL4-3 (X4) [3]; Human immunodeficiency virus 1, NL43, PBMC, 240 h, PHA-stimulated PBMCs, ten days post infection, p24 Ag ELISA, mean ± SEM, read-out: IC50 HIV-1 (X4) NL4-3 replication, PHA-stimulated PBMCs)?
A: The IC50 was greater than 225 nM.

Q: And the CC50 at 10 days (in vitro [4])?
A: The CC50 at 10 days was roughly 300 nM.

Q: And the IC50 ([5]; Homo sapiens, Jurkat, 2 h, read-out: IC50 Chemotaxis)?
A: Its IC50 is 1890 nM.

Q: What about the CC50 at 2 h (in vitro [6]) of the same molecule?
A: The CC50 at 2 h was 10000 nM.

Q: And the CC50 at 4 days (in vitro [6])?
A: The CC50 at 4 days was roughly 300 nM.

Q: And the IC50 (CXCR4 [7])?
A: The IC50 was greater than 10000 nM.

Q: And the “induction of CXCR4 internalization (agonistic effect)” value (CXCR4 [7]; 10 μM)?
A: The value was “absence of an agonistic effect”.

Q: What about the IC50 (HIV-1 NL4-3 (X4) [8]; Human immunodeficiency virus 1, NL43, MT4, 96 h, MT-4 cells, four days post infection, MTS, mean ± SEM, read-out: IC50 HIV-1 (X4) NL4-3 replication, MT-4 cells) of the same molecule?
A: The IC50 was greater than 376 nM.

Q: Which results are given for `N=C(N)NCCC[C@H](NC(=O)[C@@H]1CSSC[C@H](NC(=O)[C@H](Cc2ccc3ccccc3c2)NC(=O)[C@H](CCCNC(=N)N)NC(=O)[C@@H](N)CCCNC(=N)N)C(=O)N[C@@H](Cc2ccc(O)cc2)C(=O)N[C@@H](CCCNC(=N)N)C(=O)N[C@@H](CCCCN)C(=O)N[C@H](CCCCN)C(=O)N2CCC[C@H]2C(=O)N[C@@H](Cc2ccc(O)cc2)C(=O)N[C@@H](CCCNC(=N)N)C(=O)N[C@@H](CCCNC(N)=O)C(=O)N1)C(=O)O` [T140] (H-RR[2Nal]CYRK[dK]PYR[Cit]CR-OH; disulfide 4-13 (inferred); N-terminus and C-terminus assumed)?
A: IC50 (HIV-1 NL4-3 (X4) [3]; NL4-3 (X4)): 10.4 ± 4.8 nM; IC50 [5]: 73.7 ± 26 nM; induction of CXCR4 internalization (agonistic effect) (CXCR4 [7]; 50 μM): absence of an agonistic effect; IC50 (HIV-1 NL4-3 (X4) [8]; NL4-3 (X4)): 13.5 ± 7.1 nM

Q: With “CXCL12: Recombinant human CXCL12, endogenous chemokine ligand of CXCR4” as the molecule, how does the EC90 (CXCR4 [2]; U87.CD4.CXCR4 cells, CXCL12 alone, read-out: EC90 increase of the calcium concentration) read?
A: Its EC90 is 10.9 nM.

Q: Which results are given for KGVSLSYRKRYSLSVGK-NH2 [CTCE-9908]?
A: agonist activity on intracellular calcium flux (CXCR4 [2]; 20 μM): this activity was lost; agonist activity on intracellular calcium flux (CXCR4 [2]; 100 μM): very weak agonist activity; induction of CXCR4 internalization (agonistic effect) (CXCR4 [7]; 100 μM): absence of an agonistic effect

Q: Which results are given for `N=C(N)NCCC[C@H](NC(=O)[C@@H]1CSSC[C@H](NC(=O)[C@H](Cc2ccc3ccccc3c2)NC(=O)[C@H](CCCNC(=N)N)NC(=O)[C@@H](N)CCCNC(=N)N)C(=O)N[C@@H](Cc2ccc(O)cc2)C(=O)N[C@@H](CCCNC(N)=O)C(=O)N[C@@H](CCCCN)C(=O)N[C@H](CCCNC(N)=O)C(=O)N2CCC[C@H]2C(=O)N[C@@H](Cc2ccc(O)cc2)C(=O)N[C@@H](CCCNC(=N)N)C(=O)N[C@@H](CCCNC(N)=O)C(=O)N1)C(N)=O` [TC14012]?
A: inhibition of CXCL12 binding on CXCR7 (CXCR7): reduced CXCL12 binding on CXCR7 in the lower micromolar range; IC50 (HIV-1 NL4-3 (X4) [3]; NL4-3 (X4)): 9.3 ± 4 nM; inhibition of migration ([5]; pretreated at concentrations as low as 200 nM): total inhibition of migration; induction of CXCR4 internalization (agonistic effect) (CXCR4 [7]; 50 μM): absence of an agonistic effect; IC50 (HIV-1 NL4-3 (X4) [8]; NL4-3 (X4)): 7.2 ± 2.3 nM

Q: For `N=C(N)NCCC[C@H](NC(=O)[C@@H]1CSSC[C@H](NC(=O)[C@H](Cc2c[nH]c3ccccc23)NC(=O)[C@H](CCCNC(=N)N)NC(=O)[C@@H](N)CCCNC(=N)N)C(=O)N[C@@H](Cc2ccc(O)cc2)C(=O)N[C@@H](CCCNC(=N)N)C(=O)N[C@@H](CCCCN)C(=O)N[C@H]2CSSC[C@H](NC(=O)[C@H](Cc3ccc(O)cc3)NC(=O)CNC(=O)[C@H](CCCCN)NC(=O)[C@H](Cc3ccc(O)cc3)NC2=O)C(=O)N[C@@H](Cc2ccc(O)cc2)C(=O)N[C@@H](CCCNC(=N)N)C(=O)N[C@@H](CCCCN)C(=O)N1)C(N)=O` [T22, (Tyr^5.12,Lys^7)-Polyphemusin II] (H-RRWCYRKCYKGYCYRKCR-NH2; disulfide 4-17, 8-13 (inferred); N-terminus and C-terminus assumed), which “induction of CXCR4 internalization (agonistic effect)” value (CXCR4 [7]; 50 μM) is on record?
A: Its value is “absence of an agonistic effect”.
